Where two headings read alike, the source gives them in different places.
Legend:
[1] = biological target: T1, KPC-2 (Klebsiella pneumoniae, UniProt Q9F663); assay: β-Lactamase inhibitory activity (nitrocefin hydrolysis), KPC-2; format: biochemical; conditions: KPC-2 0.5 nM, 100 μM nitrocefin, pre-incubation 30° C. 10 minutes
T1 construct: AmpC, TEM-1, KPC-2 or OXA-2 domain excluding signal peptide was amplified with PCR; made in house; host or cells: Escherichia coli BL21 (DE3), pET-28b(+)

[2] = biological target: T2, AmpC (Pseudomonas aeruginosa, UniProt P24735); assay: biochemical
T2 construct: AmpC, TEM-1, KPC-2 or OXA-2 domain excluding signal peptide was amplified with PCR; made in house; host or cells: Escherichia coli BL21 (DE3), pET-28b(+)
T2 sequence (P24735 27-397): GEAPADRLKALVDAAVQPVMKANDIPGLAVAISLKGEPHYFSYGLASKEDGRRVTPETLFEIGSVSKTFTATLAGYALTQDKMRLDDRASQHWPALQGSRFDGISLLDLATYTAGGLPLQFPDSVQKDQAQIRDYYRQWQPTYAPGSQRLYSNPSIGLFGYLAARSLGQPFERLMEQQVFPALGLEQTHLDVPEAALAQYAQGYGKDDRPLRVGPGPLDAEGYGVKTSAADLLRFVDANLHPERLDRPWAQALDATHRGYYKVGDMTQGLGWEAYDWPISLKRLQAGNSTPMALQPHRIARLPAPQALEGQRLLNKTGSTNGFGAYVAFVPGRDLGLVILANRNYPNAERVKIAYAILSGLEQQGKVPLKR

[3] = biological target: T3, TEM-1 (Escherichia coli, UniProt P62593); assay: β-Lactamase inhibitory activity (nitrocefin hydrolysis), TEM-1; format: biochemical; conditions: TEM-1 0.1 nM, 100 μM nitrocefin, pre-incubation 30° C. 10 minutes
T3 construct: AmpC, TEM-1, KPC-2 or OXA-2 domain excluding signal peptide was amplified with PCR; made in house; host or cells: Escherichia coli BL21 (DE3), pET-28b(+)
T3 sequence (P62593 24-286 limits assumed): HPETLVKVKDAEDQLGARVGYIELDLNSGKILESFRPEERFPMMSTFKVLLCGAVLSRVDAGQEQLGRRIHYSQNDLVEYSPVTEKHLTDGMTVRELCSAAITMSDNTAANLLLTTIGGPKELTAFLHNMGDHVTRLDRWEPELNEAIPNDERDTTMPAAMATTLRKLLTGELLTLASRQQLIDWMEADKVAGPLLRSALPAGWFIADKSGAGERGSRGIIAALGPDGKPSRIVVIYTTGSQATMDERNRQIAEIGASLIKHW
Method: Using Pseudomonas aeruginosa ATCCBAA-47 genome, plasmid pBR322, Klebsiella pneumoniae ATCCBAA-1705, and P. aeruginosa MSC17696 as a template, each DNA for encoding β-lactamase, AmpC, TEM-1, KPC-2 or OXA-2 domain excluding signal peptide was amplified with PCR. Each of the PCR product was incorporated into pET-28b(+)vector (Merck), introduced into Escherichia coli BL21 (DE3) (Merck), and, under induction of 1 mM isopropyl-β-D-(−)-thiogalactopyranoside (Nacalai Tesque), cultured overnight at 20° C. to express AmpC, TEM-1, KPC-2, and OXA-2. After the bacterial cell was collected, AmpC was purified from the cell extract obtained by ultrasonic treatment, using CM Sepharose Fast Flow (GE Healthcare) and HiTrap Heparin HP (GE Healthcare) at 4° C. TEM-1 was purified with HiTrap SPHP (GE Healthcare), HiTrap Q (GE Healthcare) and Mono Q (GE Healthcare), and KPC-2 was purified with HiTrap SPHP. OXA-2 was purified with HiTrap SPHP and HiTrap Heparin HP.
For the measurement of β-lactamase inhibitory activity, 100 μM (final concentration) nitrocefin (Oxoid) was used as a substrate, and 2.5% DMSO, 10 μg/mL bovine serum derived albumin (Sigma-Aldrich) and 50 mM phosphate buffer at pH 7.0 were used as a reaction solution. […] Nitrocefin was added to each well to be mixed therein, followed by incubation at 30° C. for 20 minutes, and Multiscan Ascent (Thermo Fisher Scientific) was used to measure 492 nm wavelength, thereby measuring nitrocefin hydrolytic activity of β-Lactamase, to determine enzyme inhibitory activity. […] As the inhibitory activity strength, less than 0.1 μM, less than 1 μM, less than 3 μM, less than 10 μM, and 10 μM or more were shown with A, B, C, D, and E respectively.

[4] = biological target: T4, OXA-2 (Escherichia coli, UniProt P0A1V9); assay: biochemical; set-up: species or system P. aeruginosa
T4 construct: AmpC, TEM-1, KPC-2 or OXA-2 domain excluding signal peptide was amplified with PCR; made in house; host or cells: Escherichia coli BL21 (DE3), pET-28b(+)
T4 sequence (P0A1V9 22-275): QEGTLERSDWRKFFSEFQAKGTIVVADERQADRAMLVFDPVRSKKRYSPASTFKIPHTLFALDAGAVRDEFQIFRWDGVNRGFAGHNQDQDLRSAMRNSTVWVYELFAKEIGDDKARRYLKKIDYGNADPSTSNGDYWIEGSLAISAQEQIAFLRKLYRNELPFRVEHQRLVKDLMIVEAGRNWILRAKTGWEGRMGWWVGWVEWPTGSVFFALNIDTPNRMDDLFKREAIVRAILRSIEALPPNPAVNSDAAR

[5] = OXA-2 2 nM, 100 μM nitrocefin, pre-incubation 30° C. 10 minutes, read-out: β-Lactamase inhibitory activity OXA-2 (IC50)

T1 sequence (Q9F663 25-293, looked up): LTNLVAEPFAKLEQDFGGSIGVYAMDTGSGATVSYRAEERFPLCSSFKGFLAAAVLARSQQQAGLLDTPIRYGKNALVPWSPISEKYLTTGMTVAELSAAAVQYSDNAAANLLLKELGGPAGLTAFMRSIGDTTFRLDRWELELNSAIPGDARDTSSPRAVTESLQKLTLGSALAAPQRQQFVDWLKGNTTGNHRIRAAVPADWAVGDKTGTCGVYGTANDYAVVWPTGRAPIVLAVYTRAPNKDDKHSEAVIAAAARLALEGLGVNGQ

Row | Compound | IC50 [1] [µM] | IC50 [2] [µM] | IC50 [3] [µM] | IC50 [4, 5] [µM] | IC50 [4] [µM]
1 | C[C@@H](CN)ONC(=O)[C@@H]1CC[C@@H]2CN1C(=O)N2OS(=O)(=O)O [Example 68, (2S,5R)—N-{[(2S)-1-Aminopropan-2-yl]oxy}-7-oxo-6-(sulfooxy)-1,6-diazabicyclo[3.2.1]octane-2-carboxamide] | 0.1 to 1 | < 0.1 | < 0.1 | 1 to 3 | –
2 | COCC(=O)NNC(=O)[C@@H]1CC[C@@H]2CN1C(=O)N2OS(=O)(=O)O [Example 29, Sodium (2S,5R)—N′-(methoxyacetyl)-7-oxo-6-(sulfooxy)-1,6-diazabicyclo[3.2.1]octane-2-carbohydrazide] | 0.1 to 1 | 0.1 to 1 | < 0.1 | – | 3 to 10
3 | CCN(CC)C(=O)NNC(=O)[C@@H]1CC[C@@H]2CN1C(=O)N2OS(=O)(=O)O [Example 48, Sodium N,N-diethyl2-{[(2S,5R)-7-oxo-6-(sulfooxy)-1,6-diazabicyclo[3.2.1]oct-2-yl]carbonyl}hydrazinecarboxamide] | 0.1 to 1 | < 0.1 | 0.1 to 1 | – | 3 to 10
4 | CC(C)(C)OC(=O)NCCONC(=O)[C@@H]1CC[C@@H]2CN1C(=O)N2OS(=O)(=O)O [Example 60, Sodium tert-butyl {2-[({[(2S,5R)-7-oxo-6-(sulfooxy)-1,6-diazabicyclo[3.2.1]oct-2-yl]carbonyl}amino)oxy]ethyl}carbamate] | 0.1 to 1 | 0.1 to 1 | < 0.1 | – | 0.1 to 1
5 | O=C(NOC[C@@H]1CCCCN1)[C@@H]1CC[C@@H]2CN1C(=O)N2OS(=O)(=O)O [Example 78, (2S,5R)-7-Oxo-N-[(2S)-piperidine-2-ylmethoxy]-6-(sulfooxy)-1,6-diazabicyclo[3.2.1]octane-2-carboxamide] | 1 to 3 | 0.1 to 1 | < 0.1 | 1 to 3 | –
6 | CN(C)C(=O)CONC(=O)[C@@H]1CC[C@@H]2CN1C(=O)N2OS(=O)(=O)O [Example 89, Sodium (2S,5R)—N-[2-(dimethylamino)-2-oxoethoxy]-7-oxo-6-(sulfooxy)-1,6-diazabicyclo[3.2.1]octane-2-carboxamide] | < 0.1 | < 0.1 | < 0.1 | – | 0.1 to 1
7 | O=C(NOC1CCNCC1)[C@@H]1CC[C@@H]2CN1C(=O)N2OS(=O)(=O)O [Example 84, (2S,5R)-7-Oxo-N-(piperidine-4-yloxy)-6-(sulfooxy)-1,6-diazabicyclo[3.2.1]octane-2-carboxamide] | 1 to 3 | < 0.1 | < 0.1 | 0.1 to 1 | –
8 | O=C(NOCCN1CCNC1=O)[C@@H]1CC[C@@H]2CN1C(=O)N2OS(=O)(=O)O [Example 94, Sodium (2S,5R)-7-oxo-N-[2-(2-oxoimidazolidin-1-yl)ethoxy]-6-(sulfooxy)-1,6-diazabicyclo[3.2.1]octane-2-carboxamide] | 0.1 to 1 | < 0.1 | < 0.1 | – | 0.1 to 1
9 | COCCONC(=O)[C@@H]1CC[C@@H]2CN1C(=O)N2OS(=O)(=O)O [Example 96, Sodium (2S,5R)—N-(2-methoxyethoxy)-7-oxo-6-(sulfooxy)-1,6-diazabicyclo[3.2.1]octane-2-carboxamide] | 0.1 to 1 | < 0.1 | < 0.1 | – | 1 to 3
10 | O=C(NOCCN1CCOCC1)[C@@H]1CC[C@@H]2CN1C(=O)N2OS(=O)(=O)O [Example 72, Sodium (2S,5R)—N-[2-(morpholin-4-yl)ethoxy]-7-oxo-6-(sulfooxy)-1,6-diazabicyclo[3.2.1]octane-2-carboxamide] | 0.1 to 1 | < 0.1 | < 0.1 | – | 0.1 to 1
11 | O=C(NNC(=O)[C@@H]1CC[C@@H]2CN1C(=O)N2OS(=O)(=O)O)[C@@H]1CCCN1 [Example 38, (2S,5R)-7-Oxo-N′-[(2S)-pyrrolidin-2-ylcarbonyl]-6-(sulfooxy)-1,6-diazabicyclo[3.2.1]octane-2-carbohydrazide] | 0.1 to 1 | 0.1 to 1 | < 0.1 | 1 to 3 | –
12 | O=C(NNC(=O)[C@@H]1CC[C@@H]2CN1C(=O)N2OS(=O)(=O)O)[C@H]1CCCCN1 [Example 37, (2S,5R)-7-Oxo-N′-[(2R)-piperidine-2-ylcarbonyl]-6-(sulfooxy)-1,6-diazabicyclo[3.2.1]octane-2-carbohydrazide] | 1 to 3 | 1 to 3 | < 0.1 | 1 to 3 | –
13 | O=C(NNC(=O)[C@@H]1CC[C@@H]2CN1C(=O)N2OS(=O)(=O)O)[C@@H]1CCCCN1 [Example 36, (2S,5R)-7-Oxo-N′-[(2S)-piperidine-2-ylcarbonyl]-6-(sulfooxy)-1,6-diazabicyclo[3.2.1]octane-2-carbohydrazide] | 1 to 3 | 0.1 to 1 | < 0.1 | 3 to 10 | –
14 | O=C1CC[C@@H](C(=O)NNC(=O)[C@@H]2CC[C@@H]3CN2C(=O)N3OS(=O)(=O)O)N1 [Example 41, Sodium (2S,5R)-7-oxo-N′-{[(2S)-5-oxopyrrolidin-2-yl]carbonyl}-6-(sulfooxy)-1,6-diazabicyclo[3.2.1]octane-2-carbohydrazide] | 1 to 3 | 0.1 to 1 | 0.1 to 1 | – | 3 to 10
15 | O=C(NOCC1CCC1)[C@@H]1CC[C@@H]2CN1C(=O)N2OS(=O)(=O)O [Example 58, Sodium (2S,5R)—N-(cyclobutylmethoxy)-7-oxo-6-(sulfooxy)-1,6-diazabicyclo[3.2.1]octane-2-carboxamide] | < 0.1 | < 0.1 | < 0.1 | – | 0.1 to 1
16 | CN(C)C(=O)NNC(=O)[C@@H]1CC[C@@H]2CN1C(=O)N2OS(=O)(=O)O [Example 47, Sodium N,N-dimethyl2-{[(2S,5R)-7-oxo-6-(sulfooxy)-1,6-diazabicyclo[3.2.1]oct-2-yl]carbonyl}hydrazinecarboxamide] | 0.1 to 1 | 0.1 to 1 | < 0.1 | – | 3 to 10
17 | O=C(NNC(=O)[C@@H]1CC[C@@H]2CN1C(=O)N2OS(=O)(=O)O)C1CCOCC1 [Example 34, Sodium (2S,5R)-7-oxo-6-(sulfooxy)-N′-(tetrahydro-2H-pyran-4-ylcarbonyl)-1,6-diazabicyclo[3.2.1]octane-2-carbohydrazide] | 0.1 to 1 | < 0.1 | < 0.1 | – | 3 to 10
18 | O=C1CC[C@H](C(=O)NNC(=O)[C@@H]2CC[C@@H]3CN2C(=O)N3OS(=O)(=O)O)N1 [Example 42, Sodium (2S,5R)-7-oxo-N′-{[(2R)-5-oxopyrrolidin-2-yl]carbonyl}-6-(sulfooxy)-1,6-diazabicyclo[3.2.1]octane-2-carbohydrazide] | 0.1 to 1 | 0.1 to 1 | 0.1 to 1 | – | 1 to 3
19 | O=C(NOC[C@@H]1CCN1)[C@@H]1CC[C@@H]2CN1C(=O)N2OS(=O)(=O)O [Example 75, (2S,5R)—N-[(2S)-Azetidin-2-ylmethoxy]-7-oxo-6-(sulfooxy)-1,6-diazabicyclo[3.2.1]octane-2-carboxamide] | 0.1 to 1 | 0.1 to 1 | < 0.1 | 1 to 3 | –
20 | O=C(NOCC(=O)N1CCOCC1)[C@@H]1CC[C@@H]2CN1C(=O)N2OS(=O)(=O)O [Example 91, Sodium (2S,5R)—N-[2-(morpholin-4-yl)-2-oxoethoxy]-7-oxo-6-(sulfooxy)-1,6-diazabicyclo[3.2.1]octane-2-carboxamide] | < 0.1 | < 0.1 | < 0.1 | – | 0.1 to 1
21 | O=C(NOCCN1CCCNCC1)[C@@H]1CC[C@@H]2CN1C(=O)N2OS(=O)(=O)O [Example 74, (2S,5R)-7-Oxo-N-[2-(1,4-diazepan-1-yl)ethoxy]-6-(sulfooxy)-1,6-diazabicyclo[3.2.1]octane-2-carboxamide] | 0.1 to 1 | < 0.1 | < 0.1 | 0.1 to 1 | –
22 | NCCC(=O)NNC(=O)[C@@H]1CC[C@@H]2CN1C(=O)N2OS(=O)(=O)O [Example 27, (2S,5R)—N′-(3-Aminopropanoyl)-7-oxo-6-(sulfooxy)-1,6-diazabicyclo[3.2.1]octane-2-carbohydrazide] | 1 to 3 | 0.1 to 1 | < 0.1 | 1 to 3 | –
23 | O=C(NOC[C@@H]1CCCN1)[C@@H]1CC[C@@H]2CN1C(=O)N2OS(=O)(=O)O [Example 76, (2S,5R)-7-Oxo-N-[(2S)-pyrrolidin-2-ylmethoxy]-6-(sulfooxy)-1,6-diazabicyclo[3.2.1]octane-2-carboxamide] | 0.1 to 1 | 0.1 to 1 | < 0.1 | 0.1 to 1 | –

Reference: patent US10556905B2, “Processes for preparing a diazabicyclooctane compound” (priority 2012, dated 2020)
